Columns and labels:
Type in all cases: biochemical
PLK2 = PLK2 (Homo sapiens, UniProt Q9NYY3); experiment: PLK TR-FRET peptide assay, PLK2; conditions: for IC50: PLK TR-FRET peptide assay, GST-PLK2, 60 min reaction, read-out: Plk2 IC50
PLK3 = PLK3 (Homo sapiens, UniProt Q9H4B4); experiment: PLK TR-FRET peptide assay, PLK3; conditions: GST-PLK3, 15 min reaction, read-out: Plk3 IC50
PLK1 = PLK1 (Homo sapiens, UniProt P53350); experiment: PLK TR-FRET peptide assay, PLK1; conditions: GST-PLK1, 60 min reaction
Chain of PLK1 (P53350 whole entry): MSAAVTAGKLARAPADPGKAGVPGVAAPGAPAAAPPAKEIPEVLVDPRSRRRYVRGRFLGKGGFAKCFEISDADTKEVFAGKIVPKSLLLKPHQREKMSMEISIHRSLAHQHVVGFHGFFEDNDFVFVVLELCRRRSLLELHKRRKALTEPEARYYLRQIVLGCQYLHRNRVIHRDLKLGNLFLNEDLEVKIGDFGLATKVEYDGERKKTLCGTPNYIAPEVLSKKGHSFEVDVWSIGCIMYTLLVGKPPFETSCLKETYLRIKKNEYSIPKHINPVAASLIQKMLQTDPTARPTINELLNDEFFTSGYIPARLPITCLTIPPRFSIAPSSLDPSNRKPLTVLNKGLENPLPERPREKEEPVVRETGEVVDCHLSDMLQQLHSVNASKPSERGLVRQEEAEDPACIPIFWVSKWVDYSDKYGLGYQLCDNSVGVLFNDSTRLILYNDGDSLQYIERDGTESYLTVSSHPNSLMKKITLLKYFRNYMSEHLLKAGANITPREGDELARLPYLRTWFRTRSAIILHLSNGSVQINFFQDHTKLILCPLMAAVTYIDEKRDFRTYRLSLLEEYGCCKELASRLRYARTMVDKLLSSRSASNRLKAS

Chain of PLK2 (Q9NYY3 whole entry): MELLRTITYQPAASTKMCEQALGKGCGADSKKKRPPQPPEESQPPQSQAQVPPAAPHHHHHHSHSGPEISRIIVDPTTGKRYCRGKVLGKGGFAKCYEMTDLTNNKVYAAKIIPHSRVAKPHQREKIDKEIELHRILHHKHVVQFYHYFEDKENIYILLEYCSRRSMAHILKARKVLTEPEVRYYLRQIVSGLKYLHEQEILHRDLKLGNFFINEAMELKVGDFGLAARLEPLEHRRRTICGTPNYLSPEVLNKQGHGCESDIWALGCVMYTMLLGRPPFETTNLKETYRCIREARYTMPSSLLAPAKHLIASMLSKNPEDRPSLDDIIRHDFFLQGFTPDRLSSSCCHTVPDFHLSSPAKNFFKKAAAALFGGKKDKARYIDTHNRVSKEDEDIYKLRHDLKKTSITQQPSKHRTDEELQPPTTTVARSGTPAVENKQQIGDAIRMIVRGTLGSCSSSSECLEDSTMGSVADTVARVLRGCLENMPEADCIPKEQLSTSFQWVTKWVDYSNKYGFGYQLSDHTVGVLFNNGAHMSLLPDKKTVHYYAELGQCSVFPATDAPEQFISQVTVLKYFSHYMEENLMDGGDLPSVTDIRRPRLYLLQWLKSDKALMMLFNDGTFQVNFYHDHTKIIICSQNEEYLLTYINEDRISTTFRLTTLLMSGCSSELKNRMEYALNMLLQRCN
Chain of PLK3 (Q9H4B4 whole entry): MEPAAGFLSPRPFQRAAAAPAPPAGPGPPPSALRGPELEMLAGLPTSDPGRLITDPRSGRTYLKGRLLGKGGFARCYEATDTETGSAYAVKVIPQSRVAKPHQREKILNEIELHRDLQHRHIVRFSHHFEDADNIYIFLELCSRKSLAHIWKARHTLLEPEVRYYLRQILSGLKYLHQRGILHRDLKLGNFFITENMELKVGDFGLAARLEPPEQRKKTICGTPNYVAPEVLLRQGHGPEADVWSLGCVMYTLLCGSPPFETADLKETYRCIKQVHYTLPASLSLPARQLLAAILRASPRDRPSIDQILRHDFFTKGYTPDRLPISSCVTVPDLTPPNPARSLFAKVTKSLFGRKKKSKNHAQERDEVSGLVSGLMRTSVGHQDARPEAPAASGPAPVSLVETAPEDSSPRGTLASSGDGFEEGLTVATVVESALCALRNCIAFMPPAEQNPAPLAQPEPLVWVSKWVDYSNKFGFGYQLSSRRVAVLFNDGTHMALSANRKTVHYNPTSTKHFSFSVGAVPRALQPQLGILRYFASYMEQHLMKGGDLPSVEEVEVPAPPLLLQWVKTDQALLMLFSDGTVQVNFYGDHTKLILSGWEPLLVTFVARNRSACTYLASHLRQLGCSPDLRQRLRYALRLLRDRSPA

Row | Structure (SMILES) | IC50 (PLK2) [µM] | IC50 (PLK3) [µM] | IC50 (PLK1) [µM] | relative PLK2 activity of the enantiomers (PLK2; compared with the opposite enantiomer)
1 | CC[C@@H]1C(=O)N(C)c2cnc(-c3cncnc3-c3ccc(C(F)(F)F)cc3)nc2N1C(C)C [Example 168, (R)-7-ethyl-8-isopropyl-5-methyl-2-(4-(4-(trifluoromethyl)phenyl)pyrimidin-5-yl)-7,8-dihydropteridin-6(5H)-one] | 10 to 50 | > 50 | 10 to 50 | –
2 | [2H]C([2H])([2H])N1C(=O)C(C([2H])([2H])C([2H])([2H])[2H])N(C([2H])(C([2H])([2H])[2H])C([2H])([2H])[2H])c2nc(-n3ccnc3-c3ccc(F)c(F)c3)ncc21 (stereo not shown) [Example 169, 2-(2-(3,4-difluorophenyl)-1H-imidazol-1-yl)-7-perdeuteroethyl-8-perdeuteroisopropyl-5-trideuteromethyl-7,8-dihydropteridin-6(5H)-one] | < 1 | 10 to 50 | 1 to 10 | –
3 | [2H]C([2H])([2H])N1C(=O)C(C([2H])([2H])C([2H])([2H])[2H])N(C([2H])(C([2H])([2H])[2H])C([2H])([2H])[2H])c2nc(-n3ccnc3-c3ccc(OC(F)(F)F)cc3)ncc21 (stereo not shown) [Example 170, 7-perdeuteroethyl-8-perdeuteroisopropyl-5-trideuteromethyl-2-(2-(4-(trifluoromethoxy)phenyl)-1H-imidazol-1-yl)-7,8-dihydropteridin-6(5H)-one] | < 1 | > 50 | 10 to 50 | –
4 | CC[C@@H]1C(=O)N(C)c2cnc(-n3ccnc3-c3ccc(C(F)(F)F)cc3)nc2N1C1CCC1 [Example 171, (R)-8-cyclobutyl-7-ethyl-5-methyl-2-(2-(4-(trifluoromethyl)phenyl)-1H-imidazol-1-yl)-7,8-dihydropteridin-6(5H)-one] | < 1 | > 50 | 10 to 50 | –
5 | [2H]C([2H])([2H])N1C(=O)C(C([2H])([2H])C([2H])([2H])[2H])N(C([2H])(C([2H])([2H])[2H])C([2H])([2H])[2H])c2nc(-n3ccnc3-c3cccc(C(F)(F)F)c3)ncc21 (stereo not shown) [Example 172, 7-ethyl-8-isopropyl-5-methyl-2-(2-(3-(trifluoromethyl)phenyl)-1H-imidazol-1-yl)-7,8-dihydropteridin-6(5H)-one] | < 1 | > 50 | 1 to 10 | –
6 | CC[C@@H]1C(=O)N(C)c2cnc(-c3cnoc3-c3ccc(F)cc3)nc2N1C(C)C [Example 173, (R)-7-ethyl-2-(5-(4-fluorophenyl)isoxazol-4-yl)-8-isopropyl-5-methyl-7,8-dihydropteridin-6(5H)-one] | < 1 | 10 to 50 | 1 to 10 | –
7 | CC[C@@H]1C(=O)N(C)c2cnc(-n3ccnc3-c3cc(F)cc(C(F)(F)F)c3)nc2N1C1CCC1 [Example 174, (R)-8-cyclobutyl-7-ethyl-2-(2-(3-fluoro-5-(trifluoromethyl)phenyl)-1H-imidazol-1-yl)-5-methyl-7,8-dihydropteridin-6(5H)-one] | < 1 | 10 to 50 | 1 to 10 | –
8 | CC[C@@H]1C(=O)N(C)c2cnc(-c3nccnc3-c3ccc(C(F)(F)F)cc3)nc2N1C(C)C [Example 175, (R)-7-ethyl-8-isopropyl-5-methyl-2-(3-(4-(trifluoromethyl)phenyl)pyrazin-2-yl)-7,8-dihydropteridin-6(5H)-one] | 1 to 10 | 10 to 50 | 1 to 10 | –
9 | CC[C@@H]1C(=O)N(C)c2cnc(-c3nccnc3-c3ccc(F)cc3)nc2N1C(C)C [Example 177, (R)-7-ethyl-2-(3-(4-fluorophenyl)pyrazin-2-yl)-8-isopropyl-5-methyl-7,8-dihydropteridin-6(5H)-one] | < 1 | 1 to 10 | 1 to 10 | –
10 | [2H]C([2H])([2H])N1C(=O)[C@H](C([2H])([2H])C([2H])([2H])[2H])N(C([2H])(C([2H])([2H])[2H])C([2H])([2H])[2H])c2nc(-n3ccnc3-c3cc(F)cc(F)c3)ncc21 [Example 178, (S)-2-(2-(3,5-difluorophenyl)-1H-imidazol-1-yl)-7-perdeuteroethyl-8-perdeuteroisopropyl-5-trideuteromethyl-7,8-dihydropteridin-6(5H)-one] | 10 to 50 | > 50 | > 50 | –
11 | [2H]C([2H])([2H])N1C(=O)[C@@H](C([2H])([2H])C([2H])([2H])[2H])N(C([2H])(C([2H])([2H])[2H])C([2H])([2H])[2H])c2nc(-n3ccnc3-c3cc(F)cc(F)c3)ncc21 [Example 179, (R)-2-(2-(3,5-difluorophenyl)-1H-imidazol-1-yl)-7-perdeuteroethyl-8-perdeuteroisopropyl-5-trideuteromethyl-7,8-dihydropteridin-6(5H)-one] | < 1 | 1 to 10 | < 1 | –
12 | CC[C@@]12CCCN1c1nc(-n3ccnc3-c3cc(Cl)cc(Cl)c3)ncc1N(C)C2=O [Example 184, (S)-2-(2-(3,5-dichlorophenyl)-1H-imidazol-1-yl)-6a-ethyl-5-methyl-6a,7,8,9-tetrahydropyrrolo[2,1-h]pteridin-6(5H)-one] | < 1 | 10 to 50 | 10 to 50 | –
13 | CC[C@@H]1C(=O)N(C)c2cnc(-n3ccnc3-c3cc(Cl)cc(Cl)c3)nc2N1C(C)C [Example 185, (R)-2-(2-(3,5-dichlorophenyl)-1H-imidazol-1-yl)-7-ethyl-8-isopropyl-5-methyl-7,8-dihydropteridin-6(5H)-one] | < 1 | 1 to 10 | 1 to 10 | –
14 | CC[C@@H]1C(=O)N(C)c2cnc(-n3ccnc3-c3ccc(F)c(Cl)c3)nc2N1C(C)C [Example 186, (R)-2-(2-(3-chloro-4-fluorophenyl)-1H-imidazol-1-yl)-7-ethyl-8-isopropyl-5-methyl-7,8-dihydropteridin-6(5H)-one] | < 1 | 1 to 10 | 1 to 10 | –

The next lines start with the values.

Row | IC50 (PLK2) [µM] | IC50 (PLK3) [µM] | IC50 (PLK1) [µM] | relative PLK2 activity of the enantiomers (PLK2; compared with the opposite enantiomer) | Structure (SMILES)
15 | 10 to 50 | 10 to 50 | 10 to 50 | – | CC[C@@H]1C(=O)N(C)c2cnc(-c3cnoc3-c3nccs3)nc2N1C(C)C [Example 187, (R)-7-ethyl-8-isopropyl-5-methyl-2-(5-(thiazol-2-yl)isoxazol-4-yl)-7,8-dihydropteridin-6(5H)-one]
16 | < 1 | 10 to 50 | 1 to 10 | – | CC[C@@H]1C(=O)N(C)c2cnc(-n3ccnc3-c3ccc(F)c(F)c3)nc2N1C1CCOC1 (stereo partly drawn) [Example 191, (7R)-2-(2-(3,4-difluorophenyl)-1H-imidazol-1-yl)-7-ethyl-5-methyl-8-(tetrahydrofuran-3-yl)-7,8-dihydropteridin-6(5H)-one]
17 | 1 to 10 | 1 to 10 | 1 to 10 | – | CC[C@@]12CCCN1c1nc(-n3nccc3-c3ccccc3)ncc1N(C)C2=O [Example 193, (S)-6a-ethyl-5-methyl-2-(5-phenyl-1H-pyrazol-1-yl)-6a,7,8,9-tetrahydropyrrolo[2,1-h]pteridin-6(5H)-one]
18 | < 1 | 10 to 50 | < 1 | – | CC[C@@H]1C(=O)N(C)c2cnc(-n3ccnc3-c3cccc(F)c3)nc2N1C1CC(F)(F)C1 [Example 194, (R)-8-(3,3-difluorocyclobutyl)-7-ethyl-2-(2-(3-fluorophenyl)-1H-imidazol-1-yl)-5-methyl-7,8-dihydropteridin-6(5H)-one]
19 | 1 to 10 | > 50 | 10 to 50 | – | CC[C@@H]1C(=O)N(C)c2cnc(-n3ccnc3-c3nccc4ccccc34)nc2N1C(C)C [Example 196, (R)-7-ethyl-8-isopropyl-2-(2-(isoquinolin-1-yl)-1H-imidazol-1-yl)-5-methyl-7,8-dihydropteridin-6(5H)-one]
20 | 1 to 10 | 1 to 10 | 1 to 10 | – | CC[C@@H]1C(=O)N(C)c2cnc(-c3cncnc3-c3nccs3)nc2N1C(C)C [Example 197, (R)-7-ethyl-8-isopropyl-5-methyl-2-(4-(thiazol-2-yl)pyrimidin-5-yl)-7,8-dihydropteridin-6(5H)-one]
21 | < 1 | 1 to 10 | 1 to 10 | – | CC[C@@H]1C(=O)N(C)c2cnc(-n3ccnc3-c3cc(Cl)cc(Cl)c3)nc2N1C1CCC1 [Example 198, (R)-8-cyclobutyl-2-(2-(3,5-dichlorophenyl)-1H-imidazol-1-yl)-7-ethyl-5-methyl-7,8-dihydropteridin-6(5H)-one]
22 | 1 to 10 | > 50 | 10 to 50 | – | [2H]C([2H])([2H])N1C(=O)[C@H](C([2H])([2H])C([2H])([2H])[2H])N(C([2H])(C([2H])([2H])[2H])C([2H])([2H])[2H])c2nc(-n3ccnc3-c3ccc(F)cc3)ncc21 [Example 199, (S)-7-perdeuteroethyl-2-(2-(4-fluorophenyl)-1H-imidazol-1-yl)-8-perdeuteroisopropyl-5-trideuteromethyl-7,8-dihydropteridin-6(5H)-one]
23 | < 1 | 1 to 10 | 1 to 10 | more active compound | [2H]C([2H])([2H])N1C(=O)[C@@H](C([2H])([2H])C([2H])([2H])[2H])N(C([2H])(C([2H])([2H])[2H])C([2H])([2H])[2H])c2nc(-n3ccnc3-c3ccc(F)cc3)ncc21 [Example 200, (R)-7-perdeuteroethyl-2-(2-(4-fluorophenyl)-1H-imidazol-1-yl)-8-perdeuteroisopropyl-5-trideuteromethyl-7,8-dihydropteridin-6(5H)-one]
24 | 1 to 10 | > 50 | 10 to 50 | – | [2H]C([2H])([2H])N1C(=O)[C@H](C([2H])([2H])C([2H])([2H])[2H])N(C([2H])(C([2H])([2H])[2H])C([2H])([2H])[2H])c2nc(-n3ccnc3-c3cccc(F)c3)ncc21 [Example 201, (S)-7-perdeuteroethyl-2-(2-(3-fluorophenyl)-1H-imidazol-1-yl)-8-perdeuteroisopropyl-5-trideuteromethyl-7,8-dihydropteridin-6(5H)-one]
